Results as given in article PMC3634028, “Novel α-MSH Peptide Analogues with Broad Spectrum Antimicrobial Activity” (PLoS ONE, 2013).
≈ marks a conversion by molar mass, not a printed value. Where a SMILES comes first, the peptide text is derived from it.

Columns and labels:
[1] = system: C. glabrata; type: cell-based, Candida glabrata; details: 48 h
Protocol: (§1) Two Candida albicans isolates were purchased from the ATCC (No. 24433 and 76615). The other yeast isolates were obtained from the collection of Fondazione Ca' Granda- Ospedale Maggiore Policlinico, Milano. The collection included C. albicans (7 isolates), C. glabrata (3 isolates), and C. krusei (3 isolates). Antifungal susceptibility testing was performed using the broth microdilution method according to the NCCLS M27-A guidelines (National Committee for Clinical Laboratory Standards. 1997, Reference method for broth dilution antifungal susceptibility testing of yeasts and approved standard NCCLS document M27-A. National Committee for Clinical Laboratory Standards, Wayne, Pa.). […] After 48 h of incubation, the plates were inspected for purity. A colony was taken from the agar plate and transferred into 5 mL Sabouraud-dextrose broth and incubated for 48 h at 35°C. Cells were centrifuged at 1,000× g for 10 min and the pellet was washed twice with distilled water. Cells were counted and suspended in RPMI 1640 medium buffered to pH 7.0 with 0.165 mol l^−1 morpholinepropanesulphonic acid (MOPS) buffer (Sigma) to obtain the two times test inoculum (1×10^3 to 5×10^3 CFU/mL). […] The MIC90, i.e. the minimum inhibitory concentrations endpoint were determined as 90% reduction in turbidity measured using a spectrophotometer (Titertek multiscan at 690 nm wave length).

[2] = system: Candida strains (C. albicans, C. glabrata, C. krusei); test: Anti-Candida assay, overall result in words; type: cell-based, Candida spp; details: standard culture conditions, broth culture medium
Protocol: as §1

[3] = system: C. krusei; type: cell-based, Candida krusei; details: 48 h
Protocol: as §1

[4] = system: C. albicans; type: cell-based, Candida albicans; details: 48 h
Protocol: as §1

[5] = system: Acinetobacter baumani ATCC 19606; type: cell-based; details: ATCC 19606, 18 h
Protocol: (§2) The strains used for the antimicrobial assays were the Gram-negative bacteria Acinetobacter baumani ATCC 19606, Escherichia coli D21, Pseudomonas aeruginosa ATCC 27853, and Pseudomonas syringae pv tabaci 1918NCPPB and the Gram-positive bacteria Bacillus megaterium Bm11, Staphylococcus aureus ATCC 25923, and Staphylococcus epidermidis ATCC 12228. Susceptibility testing was performed by adapting the microbroth dilution method outlined by the Clinical and Laboratory Standards Institute, using sterile 96-well plates (Falcon NJ, USA). The bacterial growth was aseptically measured by absorbance at 590 nm with a spectrophotometer (UV-1700 Pharma Spec Shimadzu, Tokyo, Japan). Afterwards, aliquots (50 µl) of bacteria in mid-log phase at a concentration of 2×10^6 colony-forming units (CFU)/mL in culture medium (Mueller-Hinton, MH) were added to 50 µl of MH broth containing the peptide in serial 2-fold dilutions ranging from 1.56 to 100 µM. Inhibition of microbial growth was determined by measuring the absorbance at 590 nm, after an incubation of 18 h at 37°C with a microplate reader (Infinite M200; Tecan, Salzburg, Austria).

[6] = system: Staphylococcus epidermidis ATCC 12228; type: cell-based; details: ATCC 12228, 18 h
Protocol: as §2

[7] = system: Pseudomonas syringae pv tabaci 1918NCPPB; type: cell-based; details: 18 h
Protocol: as §2

[8] = system: Pseudomonas aeruginosa ATCC 27853; type: cell-based; details: ATCC 27853, 18 h
Protocol: as §2

[9] = system: Staphylococcus aureus ATCC 25923; type: cell-based; details: ATCC 25923, 18 h
Protocol: as §2

[10] = system: Escherichia coli D21; type: cell-based; details: D21, 18 h
Protocol: as §2

[11] = system: Bacillus megaterium Bm11; type: cell-based; details: Bacillus Bm11, 18 h
Protocol: as §2

[12] = system: HaCaT keratinocyte cell line; test: Cytotoxic activity, MTT colorimetric method; type: cell-based, human; details: highest peptide concentration used (100 µM), 24 h
Protocol: Effects on viability was tested in the immortalised keratinocyte cell line HaCaT using the [3(4,5-dimethylthiazol-2yl)2,5-diphenyltetrazolium bromide] (MTT) colorimetric method in which the intensity of the dye is proportional to the number of viable cells. MTT is a tetrazolium salt which is reduced to a colored formazan product by mitochondrial reductases present only in metabolically active cells. Cells were cultured in Dulbecco's modified Eagle's medium (DMEM; Sigma) supplemented with 10% heat inactivated fetal bovine serum, glutamine (4 mM) and gentamicin. Afterwards, cells were plated in triplicate wells of a microtiter plate, at 4×10^4 cells/well in DMEM supplemented with 2% serum without antibiotic. After overnight incubation at 37°C in a 5% CO2 atmosphere, the medium was replaced with […] fresh DMEM supplemented with the peptides at different concentrations. The plate was incubated for 24 h at 37°C in a 5% CO2 atmosphere. Then, DMEM was removed and replaced with Hank's medium (136 mM NaCl; 4.2 mM Na2HPO4; 4.4 mM KH2PO4; 5.4 mM KCl; 4.1 mM NaHCO3, pH 7.2, supplemented with 20 mM D-glucose) containing 0.5 mg/ml MTT. After 4 h incubation, the formazan crystals were dissolved by adding 100 µl of acidified isopropanol and absorption of each well was measured using a microplate reader (Infinite M200; Tecan, Salzburg, Austria) at 570 nm. Cell viability was e expressed as percentage of viability in control cells (cells not treated with peptide).
Figure 1 Effects of the synthetic melanocortins on viability of HaCat cells. Cells were plated in wells of a microtiter plate, at 4×10^4 cells/well in DMEM supplemented with 2% serum without antibiotic. After overnight incubation at 37°C in a 5% CO2 atmosphere, the medium was replaced with 100 µl fresh DMEM supplemented with the peptides at different concentrations. […] Cell viability is expressed as percentage of viability in control cells (cells not treated with the peptide).

Compound | MIC 90 [1] | antimicrobial / anti-Candida activity (in words) [2] | MIC 90 [3] | MIC 90 [4] | other results
CC(C)[C@H](NC(=O)[C@H](Cc1ccccc1)NC(=O)[C@H](CCCCN)NC(=O)C(C)(C)NC(=O)[C@H](Cc1c[nH]c2ccccc12)NC(=O)[C@H](CCCNC(=N)N)NC(=O)[C@@H](Cc1ccc2ccccc2c1)NC(=O)[C@@H](N)Cc1c[nH]cn1)C(N)=O [Peptide 1, H-His-D(2′)Nal-Arg-Trp-Aib-Lys-Phe-Val-NH2] (HELM PEPTIDE1{H.[O=C([C@@H](Cc1ccc2ccccc2c1)N[*:1])[*:2]].R.W.[Aib].K.F.V.[am]}$$$$V2.0) | >100 µM | did not show antimicrobial activity | 97 µM (≈ 112 µg/mL) |  | 
CCC(CC)(NC(=O)[C@H](Cc1c[nH]c2ccccc12)NC(=O)[C@H](CCCNC(=N)N)NC(=O)[C@@H](Cc1ccc2ccccc2c1)NC(=O)[C@@H](N)Cc1c[nH]cn1)C(=O)N[C@@H](CCCCN)C(=O)N[C@@H](Cc1ccccc1)C(=O)N[C@H](C(N)=O)C(C)C [Peptide 2, H-His-D(2′)Nal-Arg-Trp-Deg-Lys-Phe-Val-NH2] (HELM PEPTIDE1{H.[O=C([C@@H](Cc1ccc2ccccc2c1)N[*:1])[*:2]].R.W.[CCC(CC)(N[*:1])C(=O)[*:2]].K.F.V.[am]}$$$$V2.0) | >100 µM | did not show antimicrobial activity | >100 µM | >100 µM | 
CC(C)[C@H](NC(=O)[C@H](Cc1ccccc1)NC(=O)[C@H](CCCCN)NC(=O)C1(NC(=O)[C@H](Cc2c[nH]c3ccccc23)NC(=O)[C@H](CCCNC(=N)N)NC(=O)[C@@H](Cc2ccc3ccccc3c2)NC(=O)[C@@H](N)Cc2c[nH]cn2)CCC1)C(N)=O [Peptide 5, H-His-D(2′)Nal-Arg-Trp-Ac4c -Lys-Phe-Val-NH2] (HELM PEPTIDE1{H.[O=C([C@@H](Cc1ccc2ccccc2c1)N[*:1])[*:2]].R.W.[O=C(C1(N[*:1])CCC1)[*:2]].K.F.V.[am]}$$$$V2.0) | >100 µM | weak activity | 99 µM (≈ 115 µg/mL) |  | 
CC(C)[C@H](NC(=O)[C@H](Cc1ccccc1)NC(=O)[C@H](CCCCN)NC(=O)C1(NC(=O)[C@H](Cc2c[nH]c3ccccc23)NC(=O)[C@H](CCCNC(=N)N)NC(=O)[C@@H](Cc2ccc3ccccc3c2)NC(=O)[C@@H](N)Cc2c[nH]cn2)CCCC1)C(N)=O [Peptide 6, H-His-D(2′)Nal-Arg-Trp-Ac5c-Lys-Phe-Val-NH2] (HELM PEPTIDE1{H.[O=C([C@@H](Cc1ccc2ccccc2c1)N[*:1])[*:2]].R.W.[O=C(C1(N[*:1])CCCC1)[*:2]].K.F.V.[am]}$$$$V2.0) | >100 µM | substantial activity | >100 µM |  | 
CC(C)[C@H](NC(=O)[C@H](Cc1ccccc1)NC(=O)[C@H](CCCCN)NC(=O)C1(NC(=O)[C@H](Cc2c[nH]c3ccccc23)NC(=O)[C@H](CCCNC(=N)N)NC(=O)[C@@H](Cc2ccc3ccccc3c2)NC(=O)[C@@H](N)Cc2c[nH]cn2)CCCCC1)C(N)=O [Peptide 7, H-His-D(2′)Nal-Arg-Trp-Ac6c -Lys-Phe-Val-NH2] (HELM PEPTIDE1{H.[O=C([C@@H](Cc1ccc2ccccc2c1)N[*:1])[*:2]].R.W.[O=C(C1(N[*:1])CCCCC1)[*:2]].K.F.V.[am]}$$$$V2.0) | >100 µM | substantial activity |  | 51 µM (≈ 60.9 µg/mL) | 
CC(C)[C@H](NC(=O)[C@H](Cc1ccccc1)NC(=O)[C@H](CCCCN)NC(=O)C1(NC(=O)[C@H](Cc2c[nH]c3ccccc23)NC(=O)[C@H](CCCNC(=N)N)NC(=O)[C@@H](Cc2ccc3ccccc3c2)NC(=O)[C@@H](N)Cc2c[nH]cn2)Cc2ccccc2C1)C(N)=O [Peptide 8, H-His-D(2′)Nal-Arg-Trp-Aic-Lys-Phe-Val-NH2] (HELM PEPTIDE1{H.[O=C([C@@H](Cc1ccc2ccccc2c1)N[*:1])[*:2]].R.W.[O=C(C1(N[*:1])Cc2ccccc2C1)[*:2]].K.F.V.[am]}$$$$V2.0) | 100 µM (≈ 123 µg/mL) |  |  |  | MIC 100 [5]: 12.5 µM (≈ 15.3 µg/mL); MIC 100 [6]: 6.25 µM (≈ 7.67 µg/mL); MIC 100 [7]: 25 µM (≈ 30.7 µg/mL); MIC 100 [8]: 50 µM (≈ 61.4 µg/mL); MIC 100 [9]: 12.5 µM (≈ 15.3 µg/mL); MIC 100 [10]: 12.5 µM (≈ 15.3 µg/mL); MIC 100 [11]: 1.56 µM (≈ 1.91 µg/mL); cell death / killing of human keratinocytes [12]: 50–100%
CC(C)[C@H](NC(=O)[C@H](Cc1ccccc1)NC(=O)[C@H](CCCCN)NC(=O)CCNC(=O)[C@H](Cc1c[nH]c2ccccc12)NC(=O)[C@H](CCCNC(=N)N)NC(=O)[C@@H](Cc1ccc2ccccc2c1)NC(=O)[C@@H](N)Cc1c[nH]cn1)C(N)=O [Peptide 11, H-His-D(2′)Nal-Arg-Trp-βAla-Lys-Phe-Val-NH2] (HELM PEPTIDE1{H.[O=C([C@@H](Cc1ccc2ccccc2c1)N[*:1])[*:2]].R.W.[bAla].K.F.V.[am]}$$$$V2.0) | >100 µM | no anti-Candida activity | >100 µM | >100 µM | 
CC(C)[C@H](NC(=O)[C@H](Cc1ccccc1)NC(=O)[C@H](CCCCN)NC(=O)[C@@H]1CCC[C@H]1NC(=O)[C@H](Cc1c[nH]c2ccccc12)NC(=O)[C@H](CCCNC(=N)N)NC(=O)[C@@H](Cc1ccc2ccccc2c1)NC(=O)[C@@H](N)Cc1c[nH]cn1)C(N)=O [Peptide 12, H-His-D(2′)Nal-Arg-Trp-Acpc-Lys-Phe-Val-NH2] (HELM PEPTIDE1{H.[O=C([C@@H](Cc1ccc2ccccc2c1)N[*:1])[*:2]].R.W.[O=C([C@@H]1CCC[C@H]1N[*:1])[*:2]].K.F.V.[am]}$$$$V2.0) | >100 µM | no anti-Candida activity | >100 µM | >100 µM | 
CC(C)[C@H](NC(=O)[C@H](Cc1ccccc1)NC(=O)[C@H](CCCCN)NC(=O)CNC(=O)CNC(=O)[C@H](Cc1c[nH]c2ccccc12)NC(=O)[C@H](CCCNC(=N)N)NC(=O)[C@@H](Cc1ccc2ccccc2c1)NC(=O)[C@@H](N)Cc1c[nH]cn1)C(N)=O [Peptide 13, H-His-D(2′)Nal-Arg-Trp-Gly-Gly-Lys-Phe-Val-NH2] (HELM PEPTIDE1{H.[O=C([C@@H](Cc1ccc2ccccc2c1)N[*:1])[*:2]].R.W.G.G.K.F.V.[am]}$$$$V2.0) | >100 µM | no activity | >100 µM | >100 µM | 
